Results on one compound are retold here after patent publication US12679825B2, “Crystalline and amorphous forms of a δ-opioid modulator” (Trevena, Inc., priority 2020, dated 2026).

Entries after “also recorded” stand apart in the source; their conditions may differ.

A short description of series [1]: 14-day stability testing (XRPD, HPLC, appearance). More on the design: key to XRPD after storage: CRY: Crystalline. It is filed as physicochemical. The conditions noted are these: 14 days; for Post-Storage Observations (appearance): input White solid (NE12); for 14-Day Stability, Solid Purity after storage: open vial, input 98.9% area. On the procedure:
Crystalline forms of the compound of Formula I, including the crystalline Form I, were analyzed regarding stability. Approximately 10 mg of free base Form I was subjected to 14-day stability testing under the following conditions to assess developability: • 40° C./75% RH (open vial); • Ambient light, temperature and humidity conditions (open vial).
After 2 weeks under the specified conditions, XRPD and HPLC analysis was carried out on the resultant solid material. The sample appearance was monitored over 14 days.

The nature of series [2]: Potentiometric (pH-metric) pKa. It is filed as physicochemical. The conditions noted are these: pH 2.0-12.0, methanol-water co-solvent, Yasuda-Shedlovsky extrapolation. On the procedure:
Crystalline forms of the compound of Formula I, including the crystalline Form I, were analyzed using pKa and LogP. An automated titrator system with an incorporated UV-Vis spectrometer (SiriusT3™, Pion Inc.) was used to acquire the spectrometric and potentiometric data. The optical system consisted of a photodiode array detector with a deuterium lamp and a fiber optic dip probe.
The titrator module consisted of a temperature controller (by Peltier device with in-situ thermocouple), pH electrode, an overhead stirrer, and motorized dispensers for the automatic delivery of assay titrants and reagents via capillaries. The instrumentation was operated using SiriusT3Control software (V2.0). Data processing and generation of the reported pKa and logP values was carried out using SiriusT3Refine software (V2.0). The titrants used were 0.5 M hydrochloric acid and 0.5 M potassium hydroxide, standardized using potassium hydrogen phthalate. ACS or HPLC grade methanol cosolvent was used for pKa determination. […]
An additional potentiometric assay was carried out to confirm the pKa. […] The aqueous pKa was extrapolated from the apparent pKa measured in the presence of co-solvents, using the Yasuda-Shedlovsky extrapolation equation. […]

On to `COCCOc1cccc([C@@H]2CCN(CCn3cccc3)[C@H](C)[C@H]2COc2ccc3c(c2)C(=O)NC3)c1` [crystalline Form I, (−)-6-{[(trans, trans)-4-[3-(2-methoxyethoxy)phenyl]-2-methyl-1-[2-(1H-pyrrol-1-yl)ethyl]piperidin-3-yl]methoxy}-2,3-dihydro-1H-isoindol-1-one], for which the “Decrease in purity after storage (HPLC)” value in series [1] (40° C./75% RH and ambient conditions) is recorded as not above 0.3 % area. In addition, in series [1] (40° C./75% RH), the “14-Day Stability, form by XRPD” value is listed as “retained; also recorded: Form I”; the XRPD after storage entry is given as “CRY”; the “Post-Storage Observations (appearance)” value was “White solid (NE12)”; the “14-Day Stability, Solid Purity after storage” value was 99.0 % area. For the same compound, in series [1] (Ambient light, temperature and humidity), the “14-Day Stability, Solid Purity after storage” value is 98.6 % area. Also, in series [1] (Ambient), the “14-Day Stability, form by XRPD” value is reported as “retained; also recorded: Form I”; the XRPD after storage entry is given as “CRY”; the “Post-Storage Observations (appearance)” value is “White solid (NE12)”. Besides, in series [2], the “Potentiometric (pH-metric) pKa” value is given as “confirmed the spectrometric pKa”.
